Values of other authors as cited in patent publication US20130289102A1, “AMYRIS ALCOHOL AND ITS ESTER FOR TREATING ACNE” (Trinity Laboratories, Inc., priority 2010, published 2013).

Key:
[1] = test system: porcine brain microvascular endothelial cells; details: 50-100 microM
[2] = biological target: T1, nicotinic ACh receptor channel (Mus musculus, UniProt P02716+P04756+P09690+P20782)
T1 construct: the nicotinic acetylcholine receptor channel in mouse skeletal muscles; host or cells: mouse skeletal muscle
T1 sequence (P04756 21-457): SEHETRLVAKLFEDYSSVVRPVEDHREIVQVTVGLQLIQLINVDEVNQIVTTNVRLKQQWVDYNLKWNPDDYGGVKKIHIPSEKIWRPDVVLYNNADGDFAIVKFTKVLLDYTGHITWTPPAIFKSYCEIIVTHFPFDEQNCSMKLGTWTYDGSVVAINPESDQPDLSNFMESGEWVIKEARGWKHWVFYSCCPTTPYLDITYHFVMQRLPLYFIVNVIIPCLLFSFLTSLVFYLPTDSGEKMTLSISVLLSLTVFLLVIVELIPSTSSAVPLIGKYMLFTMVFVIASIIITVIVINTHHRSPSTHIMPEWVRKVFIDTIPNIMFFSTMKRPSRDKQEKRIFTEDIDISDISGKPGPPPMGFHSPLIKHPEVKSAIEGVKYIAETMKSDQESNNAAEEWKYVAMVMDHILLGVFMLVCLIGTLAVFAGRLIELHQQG
T1 sequence (P09690 24-501): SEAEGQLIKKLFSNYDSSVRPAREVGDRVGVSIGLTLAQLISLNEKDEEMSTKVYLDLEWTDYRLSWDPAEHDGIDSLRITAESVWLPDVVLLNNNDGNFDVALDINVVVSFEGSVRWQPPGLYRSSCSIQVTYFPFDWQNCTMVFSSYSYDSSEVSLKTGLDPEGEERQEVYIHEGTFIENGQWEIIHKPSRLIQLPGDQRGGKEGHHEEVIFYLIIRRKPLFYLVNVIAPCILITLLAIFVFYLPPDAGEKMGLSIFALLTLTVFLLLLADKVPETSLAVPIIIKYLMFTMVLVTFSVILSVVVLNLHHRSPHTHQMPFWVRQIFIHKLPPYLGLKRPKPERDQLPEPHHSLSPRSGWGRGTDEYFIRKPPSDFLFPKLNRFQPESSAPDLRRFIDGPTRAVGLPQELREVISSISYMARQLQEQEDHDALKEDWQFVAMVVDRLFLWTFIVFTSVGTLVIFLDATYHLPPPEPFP
T1 sequence (P02716 25-520): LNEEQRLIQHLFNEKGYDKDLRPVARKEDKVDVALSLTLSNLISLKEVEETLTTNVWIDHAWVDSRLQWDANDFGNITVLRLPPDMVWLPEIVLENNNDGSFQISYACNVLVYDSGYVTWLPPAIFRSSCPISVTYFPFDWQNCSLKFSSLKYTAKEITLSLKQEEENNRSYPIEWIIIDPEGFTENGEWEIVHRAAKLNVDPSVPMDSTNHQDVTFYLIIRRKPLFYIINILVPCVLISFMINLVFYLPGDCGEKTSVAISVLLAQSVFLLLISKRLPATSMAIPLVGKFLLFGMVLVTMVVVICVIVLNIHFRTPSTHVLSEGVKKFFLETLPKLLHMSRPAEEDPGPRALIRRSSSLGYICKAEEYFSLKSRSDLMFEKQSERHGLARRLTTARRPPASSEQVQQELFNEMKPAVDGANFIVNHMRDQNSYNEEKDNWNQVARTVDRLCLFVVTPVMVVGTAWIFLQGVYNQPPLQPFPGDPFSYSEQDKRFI
T1 sequence (P20782 21-493): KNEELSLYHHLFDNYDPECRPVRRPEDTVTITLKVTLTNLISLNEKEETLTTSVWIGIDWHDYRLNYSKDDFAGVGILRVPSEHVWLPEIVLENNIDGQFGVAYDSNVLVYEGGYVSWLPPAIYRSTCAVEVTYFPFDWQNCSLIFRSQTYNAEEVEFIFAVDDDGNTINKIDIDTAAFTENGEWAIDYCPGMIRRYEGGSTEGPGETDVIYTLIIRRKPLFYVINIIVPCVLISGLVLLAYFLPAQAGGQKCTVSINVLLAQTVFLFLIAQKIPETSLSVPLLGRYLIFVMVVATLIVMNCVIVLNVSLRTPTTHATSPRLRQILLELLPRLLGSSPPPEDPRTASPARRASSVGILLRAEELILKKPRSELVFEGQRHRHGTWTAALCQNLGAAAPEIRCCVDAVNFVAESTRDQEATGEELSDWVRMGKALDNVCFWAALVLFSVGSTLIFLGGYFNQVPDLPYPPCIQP

angiogenesis = details: mice
Na^+, K(+)-ATPase = details: compared with other phosphatases examined
[3] = test system: human umbilical vein endothelial cells (HUVEC)
[4] = test system: extracellular signal-regulated kinase (ERK) 1/2; details: 100 microM
estrogenic activity = details: among the known phytoestrogens
[5] = up to 292 mg/kg over 1 to 3 months
[6] = mouse, in vivo, po
creatine kinase activity = details: rat uterus, epiphyseal cartilage, diaphyseal bone, aorta, left ventricle of the heart
[7] = test system: superoxide anion production; details: 0.33 μg/ml to 33.3 μg/ml
[8] = test system: UVB-induced pigmented skins
human estrogen receptor = biological target: T2, human estrogen receptor (Homo sapiens, UniProt P03372)
T2 sequence (P03372 1-595): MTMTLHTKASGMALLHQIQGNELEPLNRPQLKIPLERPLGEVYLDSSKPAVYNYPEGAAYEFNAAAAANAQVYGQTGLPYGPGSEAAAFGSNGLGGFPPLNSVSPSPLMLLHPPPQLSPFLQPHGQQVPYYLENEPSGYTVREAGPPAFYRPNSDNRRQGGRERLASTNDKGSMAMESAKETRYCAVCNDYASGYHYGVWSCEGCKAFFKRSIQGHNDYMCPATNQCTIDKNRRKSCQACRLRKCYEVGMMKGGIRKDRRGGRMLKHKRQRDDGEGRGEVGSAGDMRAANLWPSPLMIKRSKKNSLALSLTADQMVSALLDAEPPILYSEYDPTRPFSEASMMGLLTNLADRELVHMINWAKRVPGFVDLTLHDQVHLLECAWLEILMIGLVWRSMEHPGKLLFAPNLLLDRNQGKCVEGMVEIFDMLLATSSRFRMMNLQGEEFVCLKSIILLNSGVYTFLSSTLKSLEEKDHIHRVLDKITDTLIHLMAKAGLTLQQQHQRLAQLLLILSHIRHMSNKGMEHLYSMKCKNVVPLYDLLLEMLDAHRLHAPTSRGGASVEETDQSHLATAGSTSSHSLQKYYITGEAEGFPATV

cyclooxygenase = details: 6.25 μg/ml, with respect to the control
neurogenic inflammation = details: following electrical stimulation of rat trigeminal ganglion
[9] = test system: post-ischemic brain injury; details: focal ischemia in rats
[10] = biological target: presynaptic omega-agatoxin IVA-sensitive (P/Q-type) Ca^2+ channel (Rattus norvegicus, UniProt P54282)
Chain of presynaptic omega-agatoxin IVA-sensitive (P/Q-type) Ca^2+ channel (P54282 whole entry): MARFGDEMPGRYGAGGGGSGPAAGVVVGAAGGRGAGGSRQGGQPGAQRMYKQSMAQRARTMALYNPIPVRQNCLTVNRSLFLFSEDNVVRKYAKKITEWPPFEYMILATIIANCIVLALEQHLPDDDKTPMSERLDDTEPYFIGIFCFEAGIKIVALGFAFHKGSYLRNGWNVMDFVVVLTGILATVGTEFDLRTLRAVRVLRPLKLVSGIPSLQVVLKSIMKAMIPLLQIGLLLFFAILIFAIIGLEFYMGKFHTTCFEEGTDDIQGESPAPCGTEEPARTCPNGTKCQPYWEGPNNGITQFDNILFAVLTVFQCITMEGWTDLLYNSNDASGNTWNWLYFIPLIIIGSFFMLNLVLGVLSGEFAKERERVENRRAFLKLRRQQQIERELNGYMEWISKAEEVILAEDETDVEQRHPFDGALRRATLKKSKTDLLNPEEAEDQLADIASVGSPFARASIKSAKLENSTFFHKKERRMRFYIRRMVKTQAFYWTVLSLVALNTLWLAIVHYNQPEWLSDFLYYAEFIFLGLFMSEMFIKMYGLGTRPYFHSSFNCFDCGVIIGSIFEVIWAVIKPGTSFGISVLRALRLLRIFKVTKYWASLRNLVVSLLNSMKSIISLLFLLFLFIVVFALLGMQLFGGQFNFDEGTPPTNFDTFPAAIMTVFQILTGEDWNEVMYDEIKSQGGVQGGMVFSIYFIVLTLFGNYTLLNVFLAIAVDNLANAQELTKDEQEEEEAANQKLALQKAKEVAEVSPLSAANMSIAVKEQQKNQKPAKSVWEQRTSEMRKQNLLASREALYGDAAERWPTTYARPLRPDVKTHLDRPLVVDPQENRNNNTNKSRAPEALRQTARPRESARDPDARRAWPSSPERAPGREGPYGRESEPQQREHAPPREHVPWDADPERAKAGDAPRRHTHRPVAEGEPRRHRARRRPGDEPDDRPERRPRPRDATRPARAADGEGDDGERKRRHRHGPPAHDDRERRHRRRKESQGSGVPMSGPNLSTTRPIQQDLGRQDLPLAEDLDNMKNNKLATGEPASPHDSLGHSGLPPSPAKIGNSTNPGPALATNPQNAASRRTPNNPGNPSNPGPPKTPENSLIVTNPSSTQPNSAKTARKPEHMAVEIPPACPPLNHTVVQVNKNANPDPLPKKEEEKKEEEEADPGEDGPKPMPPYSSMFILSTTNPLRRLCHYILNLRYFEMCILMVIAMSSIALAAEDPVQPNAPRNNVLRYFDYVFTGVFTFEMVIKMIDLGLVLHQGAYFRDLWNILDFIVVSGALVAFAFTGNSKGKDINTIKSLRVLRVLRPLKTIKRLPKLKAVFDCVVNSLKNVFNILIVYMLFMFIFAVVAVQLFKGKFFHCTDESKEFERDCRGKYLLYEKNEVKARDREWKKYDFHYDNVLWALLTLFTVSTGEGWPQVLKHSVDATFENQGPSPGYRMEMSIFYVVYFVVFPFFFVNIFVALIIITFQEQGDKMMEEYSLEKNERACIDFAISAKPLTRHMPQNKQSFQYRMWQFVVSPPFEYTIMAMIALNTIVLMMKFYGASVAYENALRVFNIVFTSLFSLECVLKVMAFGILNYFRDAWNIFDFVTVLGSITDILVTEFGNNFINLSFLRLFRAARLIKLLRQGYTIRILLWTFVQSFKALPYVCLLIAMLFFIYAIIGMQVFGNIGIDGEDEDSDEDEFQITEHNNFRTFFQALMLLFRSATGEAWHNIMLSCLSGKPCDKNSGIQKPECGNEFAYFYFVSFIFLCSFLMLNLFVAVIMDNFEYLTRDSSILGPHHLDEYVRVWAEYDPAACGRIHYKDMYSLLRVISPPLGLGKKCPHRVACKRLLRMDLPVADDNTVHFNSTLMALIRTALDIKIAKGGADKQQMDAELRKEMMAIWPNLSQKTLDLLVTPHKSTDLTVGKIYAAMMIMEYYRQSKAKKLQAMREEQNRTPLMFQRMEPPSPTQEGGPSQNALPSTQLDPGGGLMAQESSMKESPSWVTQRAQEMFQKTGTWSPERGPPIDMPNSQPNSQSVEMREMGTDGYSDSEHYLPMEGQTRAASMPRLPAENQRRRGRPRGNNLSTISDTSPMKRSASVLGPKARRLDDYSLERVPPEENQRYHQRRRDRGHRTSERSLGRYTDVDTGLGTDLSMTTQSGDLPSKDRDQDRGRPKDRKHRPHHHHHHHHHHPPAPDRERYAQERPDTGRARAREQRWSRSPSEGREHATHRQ

For `C=C1CCC[C@]2(C)CC[C@@H](C(C)(C)O)C[C@@H]12` [β-eudesmol], the “proliferation of porcine brain microvascular endothelial cells” value [1] is given as “inhibited”, the “desensitization of the nicotinic ACh receptor” value [2] is given as “accelerated the desensitization” and the “nicotinic ACh receptor channel block” value ([2]; mouse skeletal muscles) is given as “blocked the nicotinic ACh receptor channel in both the open and closed conformations”. For the same molecule, the “angiogenesis in adjuvant-induced granuloma” value (angiogenesis) was “significantly inhibited angiogenesis”, the “angiogenesis in subcutaneously implanted Matrigel plugs” value (angiogenesis) was “significantly inhibited angiogenesis” and the “inhibition of Na+,K+-ATPase activity” value (Na^+, K(+)-ATPase) was “most strongly among the various kinds of phosphatases examined”. The “HUVEC migration stimulated by bFGF” value [3] was “inhibited the HUVEC migration”, the “tube formation by HUVEC in Matrigel” value [3] was “inhibited” and the “proliferation of HUVEC” value ([3]; 50-100 microM) was “inhibited”. The neurite extension (PC-12 cells; 100 and 150 μM) was “significantly induced neurite extension”, the “[3H]thymidine incorporation” value (PC-12 cells; at the highest concentration (150 μM)) was “suppression of [^3H]thymidine incorporation” and the “phosphorylation of ERK 1/2 induced by bFGF or vascular endothelial growth factor” value [4] was “blocked the phosphorylation”.
For `CC1(C)[C@H]2C(=COc3cc(O)ccc32)[C@]2(O)C(=O)C[C@]3(O)C[C@H]1[C@H]2[C@H]3O` [Miroestrol], the estrogenic activity (estrogenic activity) is given as “highest estrogenic activity among the known phytoestrogens”.
In the case of `CC1(C)[C@H]2C(=COc3cc(O)ccc32)[C@@H]2C(=O)C[C@]3(O)C[C@H]1[C@H]2[C@H]3O` [Deoxymiroestrol], the estrogenic activity (estrogenic activity) is given as “highest estrogenic activity among the known phytoestrogens”.
For `CO[C@H]1O[C@@H]2O[C@@]3(C)CC[C@H]4[C@H](C)CC[C@@H]([C@H]1C)[C@@]24OO3` [artemether], the toxicity in monkeys [5] is listed as “no toxicity”.
For `C[C@@H]1CC[C@H]2[C@@H](C)C(=O)O[C@@H]3O[C@@]4(C)CC[C@@H]1[C@]32OO4` [Artemisinin], the LD50 [6] is given as 4228 mg/kg.
In the case of `CC1(C)C=Cc2c(ccc3c2OC[C@@H](c2ccc(O)cc2O)C3)O1` [glabridin, Glabridin], the creatine kinase activity (creatine kinase activity) is given as “stimulating creatine kinase activity”, the “superoxide (active oxygen) formation” value [7] is given as “inhibited superoxide (active oxygen) formation” and the “pigmentation induced by UVB radiation” value ([8]; 0.5% solution, topical, backs of brownish guinea pigs) is given as “significantly reduced pigmentation”. For the same molecule, the “inflammation induced by UVB irradiation” value ([8]; 0.5% solution, topical, guinea pig skin) was “decreased the inflammation”, the DOPA-positive melanocytes ([8]; treated skin, epidermal histology) was “reduced in number” and the “binding to estrogen receptor” value (human estrogen receptor) was “binding to the human estrogen receptor”. For the same molecule, the cyclooxygenase activity (cyclooxygenase) was “inhibited the cyclooxygenase activity”, the “effect on growth of breast tumor cells, low concentrations” value (breast tumor cells; 10 nM-10 μM, estrogen receptor-dependent) was “growth-promoting effect” and the “effect on growth of breast tumor cells, high concentrations” value (breast tumor cells; >15 μM, estrogen receptor-independent) was “antiproliferative activity”.
For `CC1=CCC[C@]2(C)CC[C@@H](C(C)(C)O)C[C@@H]12` [α-eudesmol], the “inhibition of neurogenic inflammation” value (neurogenic inflammation) is listed as “potently inhibits”, the post-ischemic brain injury [9] is listed as “attenuates post-ischemic brain injury” and the “inhibition of P/Q-type Ca2+ channel” value [10] is listed as “potently inhibits”.
